In article PMC13040415, “Structure and Mechanism of PhdC, a Prenylated‐Flavin Maturase” (Proteins, 2025) one finds Tm and Kd data, which are given here for one compound.

For test [1], the target named is T1, PhdC (Mycolicibacterium fortuitum, UniProt A0A0N9XAG5).
T1 construct: gene XA26_16660; homodimer, site at dimer interface
T1 sequence (A0A0N9XAG5 2-155): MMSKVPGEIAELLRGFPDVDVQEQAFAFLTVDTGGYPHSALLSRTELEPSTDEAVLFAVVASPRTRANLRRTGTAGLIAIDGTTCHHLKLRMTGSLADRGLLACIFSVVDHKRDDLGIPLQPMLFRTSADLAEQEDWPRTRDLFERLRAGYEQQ
In words: differential scanning fluorimetry (SUPR-DSF); Tm of apo to Tm of FMN-bound. The format is binding. The conditions noted are these: 100 mM KPi, pH 7.5; ramp 1°C/min. On the technique in general: Differential scanning fluorimetry follows unfolding on heating by fluorescence.

The target of test [2] is T1, PhdC. In words: isothermal titration calorimetry. The format is binding. In general terms: Isothermal titration calorimetry measures the heat released or taken up as one component is titrated into another.

Usually Tm stands for the temperature at the midpoint of the melting transition. The Kd is the constant that tells how readily two partners part at equilibrium.

`Cc1cc2nc3c(=O)[nH]c(=O)nc-3n(C[C@H](O)[C@H](O)[C@H](O)COP(=O)(O)O)c2cc1C` [FMN]: the Tm at PhdC [1] was 63.6 to 66.5 °C. The compound also gave a Kd on PhdC [2] of 17.8 ± 0.26 µM.
